Assays:
Format in all cases: cell-based
[1] = test system: Human liver tumor cells HepG2; assay: MTT in vitro cell proliferation inhibition experiment, HepG2; conditions: Homo sapiens, MTT method, 48 h contact between compound and cell, read-out: Antiproliferative activity (IC50, μM) HepG2
Protocol: (§1) Human liver tumor cells HepG2, human colon cancer cells HCT116, and human gastric adenocarcinoma cells AGS were purchased from the Institute of Basic Medical Sciences, Chinese Academy of Medical Sciences. The cells each were preserved and passaged in the laboratory of the present disclosure according to respective cultivation data. Each cell line was routinely inoculated in a 50 mL cell culture flask, and cultivated with a 10% fetal bovine serum-containing DMEM/IRP-1640 medium at 37° C., 5% CO2, and 100% humidity, where the medium was changed daily. When growing to a confluency of 80% to 90%, cells were digested with a mixture of trypsin and EDTA and passaged according to 1:3.
(§2) An in vitro cell activity and proliferation inhibition experiment was conducted by an MTT method to investigate an impact of a target compound on a survival activity of each cell. Cells at a logarithmic growth phase were inoculated at 5×10^3 cells (100 μL)/well in a 96-well culture plate and cultivated for 24 h, and then compound solutions with different concentrations prepared in advance were added (100 μL) to the plate. At least 3 replicate wells were set for each concentration. A solvent control group without a compound and a blank control group without a cell were set. Edge wells each were filled with 200 μL of sterilized water. […] A liquid in each well was completely removed carefully, 150 μL of DMSO was added to each well, the plate was gently shaken on a microshaker for 10 min to make a purple crystal fully dissolved, and then an absorbance value was determined at 570 nm by a microplate reader. With a cell viability of the solvent control group without a compound as 100%, a cell survival rate was calculated as follows: a cell survival rate=(an absorbance value of a compound group−an absorbance value of the blank control group)/(an absorbance value of the control group−an absorbance value of the blank control group)×100%. A half-maximal inhibitory concentration (IC50) of a compound for a cell was calculated by the Graphpad Prism 5 software.

[2] = test system: human colon cancer cells HCT116; assay: MTT in vitro cell proliferation inhibition experiment, HCT116; conditions: Homo sapiens, HCT-116, MTT method, 48 h contact between compound and cell, read-out: Antiproliferative activity (IC50, μM) HCT116
Protocol: as §1, §2

[3] = test system: human gastric adenocarcinoma cells AGS; assay: MTT in vitro cell proliferation inhibition experiment, AGS; conditions: Homo sapiens, MTT method, 48 h contact between compound and cell, read-out: Antiproliferative activity (IC50, μM) AGS
Protocol: as §1, §2

`CSCCC1NC2(C(=O)c3ccccc3C2=O)C(C(=O)c2nc3ccccc3[nH]2)C1c1cccc(Br)c1` (stereo not drawn) [Compound 38, 3-(1H-benzimidazol-2-carbonyl)-4-(3-bromophenyl)-5-(2-methylthio)ethylspiro[inden-2,2′-pyrrolidine]-1,3-dione] was tested, and the IC50 [1] was 49.8 µM, the IC50 [2] was 47.4 µM and the IC50 [3] was 40.9 µM.
